{
  "source": "paper PMC4179164",
  "about": "“Ophiobolin A from Bipolaris oryzae Perturbs Motility and Membrane Integrities of Porcine Sperm and Induces Cell Death on Mammalian Somatic Cell Lines” (Toxins, 2014)",
  "key": {"L1210 cell line": {"test_system": "L1210 cell line", "conditions": "cited from earlier work"}, "boar spermatozoa": {"test_system": "boar spermatozoa", "test": "Cell membrane permeability assay on motile sperm cells (PI staining)", "assay_type": "cell-based", "conditions": "for EC50: Spermatozoa", "description": "(§1) To test the effect of OPA exposure on sperm cells in physiological conditions (swimming at 37 °C) the plasma membrane disruption on motile sperm cells was measured with the viability PI stain, where the loss of plasma membrane integrity was detected as appearance of red color stained nuclei in the damaged cells. In this assay, sperm cells were exposed to OPA at 37 °C and motility of the exposed sperm cells was induced and maintained for 2 h.\n(§2) Cell membrane permeability assay on motile sperm cells was inspected by staining with PI (Molecular Probes, Eugene, OR, USA) in sperm cells induced to swim by shaking at 37 °C. One hundred and fifty μL aliquots of commercial extended boar semen with a density of 27 × 10^6 sperms mL^−1 were pipetted into microtiter plate wells and serially diluted methanolic solution of OPA were added in the concentration range of 200 ng mL^−1 to 4 μg mL^−1 including 6 levels and an additional methanol blank, and pre-incubated for 2 h on orbital shaker (Innova 5000 new Brunswick Scientific, Enfield, CT, USA) (160 rpm) at 37 °C. Four parallel measurements were done for each dilution. One ml PI solution (1 mg mL^−1 in Dulbeco’s phosphate buffered saline) was mixed with 3 mL of […] Dulbeco’s phosphate buffered saline. One hundred and fifty μL of this stain mixture was added to 150 μL of exposed boar semen. This suspension was incubated for 15 min at 37 °C in dark and measured using a microplate reader (Fluoroskan Ascent, Thermo Scientific, Vantaa, Finland) at excitation and emission wavelengths of 544 nm and 600 nm, respectively. For observing plasma membrane damage by PI staining frozen-thawed semen was used as a positive control (for mortality of 100%) representing the maximal fluorescence emitted by the cells permeable to PI and Dulbeco’s phosphate buffered saline was applied as background control (blank). Loss of viability in the sample was calculated as described in Alm et al.. The frozen sample represented 100% loss of viability. The assay was calibrated with triclosan (Sigma Chemical Co., St. Louis, MO, USA), in 5 parallel tests, the EC50 was 2 μg mL^−1 (SD ± 0.6). Cell membrane permeability assay on static sperm cells at room temperature was carried out by viability staining with PI and calcein-AM (Molecular Probes, Eugene, OR, USA) according to Hoornstra et al. in same concentration range and levels described above."}, "[1]": {"test": "Cell membrane permeability assay on motile sperm cells (PI staining)", "assay_type": "cell-based, boar", "conditions": "boar (pig), motile boar spermatozoa (commercial extended boar semen); at 800 ng mL^−1 to 1600 ng mL^−1, 37 °C, 2 h", "description": "as §1, §2"}},
  "note": "Read-outs that look alike come from different tables or passages of the source.",
  "data": [
    {"smiles": "CC(C)=C[C@H]1C[C@H](C)[C@]2(CC[C@]3(C)C[C@H]4[C@H](C(=O)C[C@@]4(C)O)/C(C=O)=C\\C[C@H]32)O1", "note": "[OPA, ophiobolin A]", "values": [
      {"measurement": "IC50, induced cell death", "setting": "L1210 cell line", "value": 120, "unit": "µg/mL"},
      {"measurement": "EC50", "setting": "boar spermatozoa; 2 h, read-out: Toxic endpoint EC50, Permeability to PI on motile cells", "value": 1.6, "unit": "µg/mL"},
      {"measurement": "EC50", "setting": "boar spermatozoa; 37 °C, motility maintained for 2 h, read-out: EC50, loss of plasma membrane integrity (PI) on motile sperm cells", "value": "0.8 to 1.6", "unit": "µg/mL"},
      {"measurement": "Concentration lethal to the sperm cells (disrupting the plasma membrane)", "setting": "boar spermatozoa; motile at 37 °C, after 2 h", "value": "below 2000 ng/mL"},
      {"measurement": "Concentration inducing lethal damage (loss of plasma membrane integrity)", "setting": "boar spermatozoa; swimming at 37 °C, short period", "value": "< 1", "unit": "µg/mL"},
      {"measurement": "viability at 2 h", "setting": "[1]", "value": "38 to 73", "unit": "%"}
    ]}
  ]
}
